US20260347364A1, “PYRAZOLO[4,3-F]QUINAZOLINE DERIVATIVES AS MODULATORS OF G12D MUTANT KRAS USEFUL FOR THE TREATMENT OF CANCER” (JAZZ PHARMACEUTICALS IRELAND LTD., priority 2023, published 2026)

Tests used:
KRAS G12D = molecular target: T1, KRAS G12D (Homo sapiens, UniProt P01116, G12D); assay: HTRF nucleotide exchange assay, KRAS G12D; format: biochemical; conditions: class symbols; for IC50: HTRF nucleotide exchange assay (NEA)
T1 construct: aa1-188 KRAS WT, HRAS WT, NRAS WT, or KRAS containing the G12D
Protocol: (§1) HTRF Nucleotide Exchange Assay Method
(§2) The capacity of compounds to bind KRAS G12D, other KRAS mutants and wildtype RAS isoforms was quantified using a HTRF nucleotide exchange assay. Recombinant human RAS protein (2 nM; aa1-188 KRAS WT, HRAS WT, NRAS WT, or KRAS containing the G12D, G13D or Q61H amino acid substitutions, or 4 nM KRAS; aa1-188 containing the G12V, G12C, G12A or G12S amino acid substitution, an N-terminal 6× His-tag and leader sequence), and 2 nM Europium-labeled anti-6× His antibody were mixed in assay buffer (10 mM HEPES pH 7.3, 150 mM NaCl, 5 mM MgCl2, 0.05% BSA, 0.0025% NP-40 and 100 mM KF) with various concentrations of compound in a 384-well plate and a volume of 5 μL. After a 60-minute incubation at room temperature, 5 μl of 200 nM EDA-GTP-DY647P1 (diluted in assay buffer) was added to the plate. Following 30-minute incubation at room temperature, time-resolved fluorescence was measured on a PerkinElmer Envision plate reader. DMSO (0.3%) and unlabeled GDP (1 μM) or equivalent tool compound were used to generate the Max and Min assay signals, respectively. Data was analysed using a four-parameter logistic model to calculate IC50 values, with at least two independent replicates were performed for each compound. The results are presented as IC50s in Table 29 where “A” corresponds to an IC50 ≤10 nM, “B” to an IC50 >10 nM up to 100 nM, “C” is >100 nM up to 10 μM, “D” represents <49% inhibition at 10 μM and ND=not determined: […]

KRAS WT = molecular target: T2, KRAS WT (Homo sapiens, UniProt P01116); assay: HTRF nucleotide exchange assay, KRAS WT; format: biochemical; conditions: class symbols; for IC50: HTRF nucleotide exchange assay (NEA)
T2 construct: aa1-188 KRAS WT
Protocol: as §1, §2

Structure (SMILES)	IC50 (KRAS G12D) [nM]	IC50 (KRAS WT) [nM]	KRAS^G12D NEA (KRAS G12D)	KRAS^WT NEA (KRAS WT)
CCc1c(F)ccc2cc(O)cc(-c3cc4nc(OC[C@@]56CCCN5C[C@H](F)C6)nc(N5CCNCC5)c4c4cn(C)nc34)c12 [Example 13, 5-ethyl-6-fluoro-4-[2-methyl-9-piperazin-1-yl-7-[[(2R,8S)-2-fluoro-1,2,3,5,6,7-hexahydropyrrolizin-8-yl]methoxy]pyrazolo[4,3-f]quinazolin-4-yl]naphthalen-2-ol]	10 to 100	100 to 10000		
CCc1c(F)ccc2cc(O)cc(-c3cc4nc(OC[C@@]56CCCN5C[C@H](F)C6)nc(N5CC6CCC(C5)N6)c4c4cn(C)nc34)c12 [Example 15]	≤ 10	10 to 100		
Cc1cc(N)nc(-c2cc3nc(OCC45CCCN4CC(F)C5)nc(N4CCCOCC4)c3c3cn(C)nc23)c1C(F)(F)F [Example 16, 4-methyl-6-[2-methyl-9-(1,4-oxazepan-4-yl)-7-[(2R,8S)-2-fluoro-1,2,3,5,6,7-hexahydropyrrolizin-8-yl]methoxy]pyrazolo[4,3-f]quinazolin-4-yl]-5-(trifluoromethyl)pyridin-2-amine]			D (<49% inhibition at 10 μM)	D (<49% inhibition at 10 μM)
CCc1c(F)ccc2cc(O)cc(-c3cc4nc(OCC5CCCN5C)nc(N5CCCOCC5)c4c4cn(C)nc34)c12 (centres unmarked) [Example 18, 5-ethyl-6-fluoro-4-[2-methyl-7-[(1-methylpyrrolidin-2-yl)methoxy]-9-(1,4-oxazepan-4-yl)pyrazolo[4,3-f]quinazolin-4-yl]naphthalen-2-ol]	10 to 100	10 to 100		
CCc1c(F)ccc2cc(O)cc(-c3cc4nc(OCC5CCCCN5C)nc(N5CCCOCC5)c4c4cn(C)nc34)c12 (centres unmarked) [Example 19, 5-ethyl-6-fluoro-4-[2-methyl-7-[(1-methyl-2-piperidyl)methoxy]-(1,4-oxazepan-4-yl)pyrazolo[4,3-f]quinazolin-4-yl]naphthalen-2-ol]	100 to 10000	100 to 10000		
CCc1c(F)ccc2cc(O)cc(-c3cc4nc(OC[C@@]56CCCN5C[C@H](F)C6)nc(N5CCCNCC5)c4c4cn(C)nc34)c12 [Example 20, 4-[9-(1,4-diazepan-1-yl)-2-methyl-7-[[(2R,8S)-2-fluoro-1,2,3,5,6,7-hexahydropyrrolizin-8-yl]methoxy]pyrazolo[4,3-f]quinazolin-4-yl]-5-ethyl-6-fluoro-naphthalen-2-ol]	≤ 10	10 to 100		
CCc1c(F)ccc2cc(O)cc(-c3cc4nc(OC[C@@]56CCCN5C[C@H](F)C6)nc(N5CC6CNCC6C5)c4c4cn(C)nc34)c12 (stereo partly drawn) [Example 25, 4-(2,7-diazaspiro[4.4]nonan-2-yl)-6-(8-ethyl-7-fluoro-3-hydroxy-1-naphthyl)-2-[[(2R,8S)-2-fluoro-1,2,3,5,6,7-hexahydropyrrolizin-8-yl]methoxy]-7H-pyrrolo[3,4-d]pyrimidin-5-one]	≤ 10	100 to 10000		
CCc1c(F)ccc2cc(O)cc(-c3cc4nc(OCC56CCCN5CCC6)nc(N5CCCC(C)(O)CC5)c4c4cn(C)nc34)c12 (centres unmarked) [Example 27, 1-[4-(8-ethyl-7-fluoro-3-hydroxy-1-naphthyl)-7-(1,2,3,5,6,7-hexahydropyrrolizin-8-ylmethoxy)-2-methyl-pyrazolo[4,3-f]quinazolin-9-yl]-4-methyl-azepan-4-ol]	100 to 10000	100 to 10000		
CCc1c(F)ccc2cc(O)cc(-c3cc4nc(OCC56CCCN5CCC6)nc(N5CCCC(C)(O)C5)c4c4cn(C)nc34)c12 (centres unmarked) [Example 28, 1-[4-(8-ethyl-7-fluoro-3-hydroxy-1-naphthyl)-7-(1,2,3,5,6,7-hexahydropyrrolizin-8-ylmethoxy)-2-methyl-pyrazolo[4,3-f]quinazolin-9-yl]-3-methyl-piperidin-3-ol]	≤ 10	≤ 10		
CCc1c(F)ccc2cc(O)cc(-c3cc4nc(OC[C@@]56CCCN5C[C@H](F)C6)nc(N5CCCC(C)(O)CC5)c4c4cn(C)nc34)c12 (stereo partly drawn) [Example 29, 1-[4-(8-ethyl-7-fluoro-3-hydroxy-1-naphthyl)-7-[[(2R,8S)-2-fluoro-1,2,3,5,6,7-hexahydropyrrolizin-8-yl]methoxy]-2-methyl-pyrazolo[4,3-f]quinazolin-9-yl]-4-methyl-azepan-4-ol]		100 to 10000	D (<49% inhibition at 10 μM)	
CCc1c(F)ccc2cc(O)cc(-c3cc4nc(OCC5(CN(C)C)CC5)nc(N5CCCOCC5)c4c4cn(C)nc34)c12 [Example 30, 4-[7-[[1-[(dimethylamino)methyl]cyclopropyl]methoxy]-2-methyl-9-(1,4-oxazepan-4-yl)pyrazolo[4,3-f]quinazolin-4-yl]-5-ethyl-6-fluoro-naphthalen-2-ol]	10 to 100	10 to 100		
CCc1c(F)ccc2cc(O)cc(-c3cc4nc(OCC5CCN(C)CC5)nc(N5CCCOCC5)c4c4cn(C)nc34)c12 [Example 31, 5-ethyl-6-fluoro-4-[2-methyl-7-[(1-methyl-4-piperidyl)methoxy]-9-(1,4-oxazepan-4-yl)pyrazolo[4,3-f]quinazolin-4-yl]naphthalen-2-ol]	100 to 10000	100 to 10000		

The next lines start with the values.

IC50 (KRAS G12D) [nM]	IC50 (KRAS WT) [nM]	KRAS^G12D NEA (KRAS G12D)	KRAS^WT NEA (KRAS WT)	Structure (SMILES)
≤ 10	≤ 10			C#Cc1c(F)ccc2cc(O)cc(-c3cc4nc(OC[C@@]56CCCN5C[C@H](F)C6)nc(N5CCOCC(C)(O)C5)c4c4cn(C)nc34)c12 (stereo partly drawn) [Example 11, 4-[4-(8-ethynyl-7-fluoro-3-hydroxy-1-naphthyl)-2-methyl-7-[[(2R,8S)-2-fluoro-1,2,3,5,6,7-hexahydropyrrolizin-8-yl]methoxy]pyrazolo[4,3-f]quinazolin-9-yl]-6-methyl-1,4-oxazepan-6-ol]
≤ 10	≤ 10			CCc1c(F)ccc2cc(O)cc(-c3cc4nc(OC[C@@]56CCCN5C[C@H](F)C6)nc(N5CC6C(=O)NC(=O)C6C5)c4c4cn(C)nc34)c12 (stereo partly drawn) [Example 17, 5-[4-(8-ethyl-7-fluoro-3-hydroxy-1-naphthyl)-2-methyl-7-[[(2R,8S)-2-fluoro-1,2,3,5,6,7-hexahydropyrrolizin-8-yl]methoxy]pyrazolo[4,3-f]quinazolin-9-yl]-3a,4,6,6a-tetrahydropyrrolo[3,4-c]pyrrole-1,3-dione]
≤ 10	≤ 10			CCNC(=O)c1cc2n(n1)CCCN(c1nc(OC[C@@]34CCCN3C[C@H](F)C4)nc3cc(-c4cc(O)cc5ccc(F)c(CC)c45)c4nn(C)cc4c13)C2 [Example 21, N-ethyl-5-[4-(8-ethyl-7-fluoro-3-hydroxy-1-naphthyl)-2-methyl-7-[[(2R,8S)-2-fluoro-1,2,3,5,6,7-hexahydropyrrolizin-8-yl]methoxy]pyrazolo[4,3-f]quinazolin-9-yl]-4,6,7,8-tetrahydropyrazolo[1,5-a][1,4]diazepine-2-carboxamide]
≤ 10	≤ 10			CCc1c(F)ccc2cc(O)cc(-c3cc4nc(OC[C@@]56CCCN5C[C@H](F)C6)nc(N5CCCn6nc(C(=O)N(C)C)cc6C5)c4c4cn(C)nc34)c12 [Example 22, 5-[4-(8-ethyl-7-fluoro-3-hydroxy-1-naphthyl)-2-methyl-7-[[(2R,8S)-2-fluoro-1,2,3,5,6,7-hexahydropyrrolizin-8-yl]methoxy]pyrazolo[4,3-f]quinazolin-9-yl]-N,N-dimethyl-4,6,7,8-tetrahydropyrazolo[1,5-a][1,4-]diazepine-2-carboxamide]
≤ 10	≤ 10			CCc1c(F)ccc2cc(O)cc(-c3cc4nc(OC[C@@]56CCCN5C[C@H](F)C6)nc(N5CCCn6nc(C(=O)N7CCCC7)cc6C5)c4c4cn(C)nc34)c12 [Example 23, [5-[4-(8-ethyl-7-fluoro-3-hydroxy-1-naphthyl)-2-methyl-7-[[(2R,8S)-2-fluoro-1,2,3,5,6,7-hexahydropyrrolizin-8-yl]methoxy]pyrazolo-[4,3-f]quinazolin-9-yl]4,6,7,8-tetrahydropyrazolo[1,5-a][1,4]diazepin-2-yl]-pyrrolidin-1-yl-methanone]
≤ 10	≤ 10			CCc1c(F)ccc2cc(O)cc(-c3cc4nc(OC[C@@]56CCCN5C[C@H](F)C6)nc(N5CCCn6nc(C(=O)N7CCOCC7)cc6C5)c4c4cn(C)nc34)c12 [Example 24, [5-[4-(8-ethyl-7-fluoro-3-hydroxy-1-naphthyl)-2-methyl-7-[[(2R,8S)-2-fluoro-1,2,3,5,6,7-hexahydropyrrolizin-8-yl]methoxy]pyrazolo[4,3-f]quinazolin-9-yl]-4,6,7,8-tetrahydropyrazolo[1,5-a][1,4]diazepin-2-yl]-morpholino-methanone]
≤ 10	≤ 10			CCc1c(F)ccc2cc(O)cc(-c3cc4nc(OCC56CCCN5CCC6)nc(N5CCOCC(C)(O)C5)c4c4cn(C)nc34)c12 (centres unmarked) [Example 26, 4-[4-(8-ethyl-7-fluoro-3-hydroxy-1-naphthyl)-7-(1,2,3,5,6,7-hexahydropyrrolizin-8-ylmethoxy)-2-methyl-pyrazolo[4,3-f]quinazolin-9-yl]-6-methyl-1,4-oxazepan-6-ol]
